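Following 48 hours of exposure in 96-well plates, responses at five concentrations were used to interpolate endpoints linearly. The concentration for 50% growth inhibition is given as GI50. Definition used: TGI = concentration required for complete inhibition of growth.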
Columns and labels:
Experiment in all cases: inhibition of tumour cell growth, NCI panel, 48 h
SK-MEL-5 melanoma = system: SK-MEL-5 melanoma
TK-10 renal = system: TK-10 renal
T-47D breast = system: T-47D breast
PC-3 prostate = system: PC-3 prostate
RXF 393 renal = system: RXF 393 renal
MOLT-4 leukemia = system: MOLT-4 leukemia
SF-295 CNS = system: SF-295 CNS
SK-MEL-2 melanoma = system: SK-MEL-2 melanoma
SR leukemia = system: SR leukemia
HS 578T breast = system: HS 578T breast
MALME-3M melanoma = system: MALME-3M melanoma
OVCAR-8 ovarian = system: OVCAR-8 ovarian
DU-145 prostate = system: DU-145 prostate
ACHN renal = system: ACHN renal
A498 renal = system: A498 renal
SF-268 CNS = system: SF-268 CNS
SW-620 colon = system: SW-620 colon
CAKI-1 renal = system: CAKI-1 renal
SK-OV-3 ovarian = system: SK-OV-3 ovarian
NCI-H460 lung = system: NCI-H460 lung
SN12C renal = system: SN12C renal
SNB-19 CNS = system: SNB-19 CNS
HL-60(TB) leukemia = system: HL-60(TB) leukemia
SK-MEL-28 melanoma = system: SK-MEL-28 melanoma
HOP-62 NSCLC = system: HOP-62 NSCLC
UACC-257 melanoma = system: UACC-257 melanoma
SNB-75 CNS = system: SNB-75 CNS
LOX IMVI melanoma = system: LOX IMVI melanoma
MCF7 breast = system: MCF7 breast
HCT-116 colon = system: HCT-116 colon
NCI-H23 lung = system: NCI-H23 lung
UACC-62 melanoma = system: UACC-62 melanoma
COLO 205 colon = system: COLO 205 colon
IGROV1 ovarian = system: IGROV1 ovarian
MDA-MB-231 breast = system: MDA-MB-231 breast
CCRF-CEM leukemia = system: CCRF-CEM leukemia
NCI/ADR-RES ovarian = system: NCI/ADR-RES ovarian
M14 melanoma = system: M14 melanoma
BT-549 breast = system: BT-549 breast
HT29 colon = system: HT29 colon
A549 NSCLC = system: A549 NSCLC
NCI-H226 lung = system: NCI-H226 lung
HOP-92 NSCLC = system: HOP-92 NSCLC
KM12 colon = system: KM12 colon
HCC-2998 colon = system: HCC-2998 colon
UO-31 renal = system: UO-31 renal
NCI-H522 lung = system: NCI-H522 lung
HCT-15 colon = system: HCT-15 colon
SF-539 CNS = system: SF-539 CNS
786-0 renal = system: 786-0 renal
OVCAR-3 ovarian = system: OVCAR-3 ovarian
U251 CNS = system: U251 CNS
MDA-MB-435 = system: MDA-MB-435
OVCAR-5 ovarian = system: OVCAR-5 ovarian
K-562 leukemia = system: K-562 leukemia
OVCAR-4 ovarian = system: OVCAR-4 ovarian
RPMI-8226 leukemia = system: RPMI-8226 leukemia

## COc1ccc(/C=C2\CCCC3=C2N=C2SC(C)=NN2C3c2ccc(OC)c(OC)c2)cc1OC (centres undefined)
SK-MEL-5 melanoma
  GI50: 6.27 µM
  TGI: > 100 µM
TK-10 renal
  GI50: 5.99 µM
  TGI: 51.2 µM
T-47D breast
  GI50: 4.57 µM
  TGI: > 100 µM
PC-3 prostate
  GI50: 25.8 µM
  TGI: > 100 µM
RXF 393 renal
  GI50: 3.88 µM
  TGI: 18.2 µM
MOLT-4 leukemia
  GI50: 13.8 µM
  TGI: > 100 µM
SF-295 CNS
  GI50: 14.8 µM
  TGI: > 100 µM
SK-MEL-2 melanoma
  GI50: 22.2 µM
  TGI: 97.1 µM
SR leukemia
  GI50: 3.66 µM
  TGI: > 100 µM
HS 578T breast
  GI50: 30.4 µM
  TGI: > 100 µM
MALME-3M melanoma
  GI50: 15.1 µM
  TGI: 56.6 µM
OVCAR-8 ovarian
  GI50: 6.31 µM
  TGI: > 100 µM
DU-145 prostate
  GI50: 10.7 µM
  TGI: > 100 µM
ACHN renal
  GI50: 4.2 µM
  TGI: 33.3 µM
A498 renal
  GI50: 2 µM
  TGI: 86.3 µM
SF-268 CNS
  GI50: 18.2 µM
  TGI: > 100 µM
SW-620 colon
  GI50: 6.79 µM
  TGI: 53.8 µM
CAKI-1 renal
  GI50: 4.82 µM
  TGI: > 100 µM
SK-OV-3 ovarian
  GI50: 62.5 µM
  TGI: > 100 µM
NCI-H460 lung
  GI50: 23.8 µM
  TGI: > 100 µM
SN12C renal
  GI50: 14 µM
  TGI: > 100 µM
SNB-19 CNS
  GI50: 39.2 µM
  TGI: > 100 µM
HL-60(TB) leukemia
  GI50: 3.97 µM
  TGI: 36 µM
SK-MEL-28 melanoma
  GI50: 8.92 µM
  TGI: > 100 µM
HOP-62 NSCLC
  GI50: 19.8 µM
  TGI: > 100 µM
UACC-257 melanoma
  GI50: 9.17 µM
  TGI: > 100 µM
SNB-75 CNS
  GI50: 13.7 µM
  TGI: 64.2 µM
LOX IMVI melanoma
  GI50: 4.52 µM
  TGI: 35.2 µM
MCF7 breast
  GI50: 3.04 µM
  TGI: > 100 µM
HCT-116 colon
  GI50: 3.26 µM
  TGI: 14.3 µM
NCI-H23 lung
  GI50: 8.2 µM
  TGI: > 100 µM
UACC-62 melanoma
  GI50: 4.68 µM
  TGI: 45.6 µM
COLO 205 colon
  GI50: 5.24 µM
  TGI: > 100 µM
IGROV1 ovarian
  GI50: 18.4 µM
  TGI: 93.8 µM
MDA-MB-231 breast
  GI50: 25.1 µM
  TGI: > 100 µM
CCRF-CEM leukemia
  GI50: 2.91 µM
  TGI: > 100 µM
NCI/ADR-RES ovarian
  GI50: 4.71 µM
  TGI: > 100 µM
M14 melanoma
  GI50: 5.73 µM
  TGI: > 100 µM
BT-549 breast
  GI50: 7.37 µM
  TGI: > 100 µM
HT29 colon
  GI50: 11.1 µM
  TGI: 90.1 µM
A549 NSCLC
  GI50: 31.8 µM
  TGI: > 100 µM
NCI-H226 lung
  GI50: 13.3 µM
  TGI: 79.4 µM
HOP-92 NSCLC
  GI50: 10.6 µM
  TGI: 52 µM
KM12 colon
  GI50: 8.41 µM
  TGI: > 100 µM
HCC-2998 colon
  GI50: > 100 µM
  TGI: > 100 µM
UO-31 renal
  GI50: 5.99 µM
  TGI: 43.9 µM
NCI-H522 lung
  GI50: 10.8 µM
  TGI: 57.8 µM
HCT-15 colon
  GI50: 3.49 µM
  TGI: 19.4 µM
SF-539 CNS
  GI50: 8.15 µM
  TGI: > 100 µM
786-0 renal
  GI50: 11 µM
  TGI: > 100 µM
OVCAR-3 ovarian
  GI50: 4.62 µM
  TGI: 74.9 µM
U251 CNS
  GI50: 26.2 µM
  TGI: > 100 µM
MDA-MB-435
  GI50: 3.27 µM
  TGI: 69.3 µM
OVCAR-5 ovarian
  GI50: 36 µM
  TGI: > 100 µM
K-562 leukemia
  GI50: 3.98 µM
  TGI: > 100 µM

## COc1ccc(-c2c3c(N)nc(-c4ccncc4)nc3nc3c2c(C)nn3-c2ccccc2)cc1
SK-MEL-5 melanoma
  GI50: 6.79 µM
  TGI: > 100 µM
TK-10 renal
  GI50: 3.71 µM
  TGI: 14.6 µM
T-47D breast
  GI50: 3.96 µM
  TGI: > 100 µM
PC-3 prostate
  GI50: > 100 µM
  TGI: > 100 µM
RXF 393 renal
  GI50: 2.72 µM
  TGI: 20.6 µM
MOLT-4 leukemia
  GI50: 8.58 µM
  TGI: > 100 µM
SF-295 CNS
  GI50: 24.7 µM
  TGI: > 100 µM
SK-MEL-2 melanoma
  GI50: 31 µM
  TGI: > 100 µM
SR leukemia
  GI50: 1.53 µM
  TGI: > 100 µM
HS 578T breast
  GI50: 16.5 µM
  TGI: > 100 µM
MALME-3M melanoma
  GI50: 14.5 µM
  TGI: > 100 µM
OVCAR-8 ovarian
  GI50: 7.11 µM
  TGI: > 100 µM
DU-145 prostate
  GI50: 7.39 µM
  TGI: > 100 µM
ACHN renal
  GI50: 4.58 µM
  TGI: > 100 µM
A498 renal
  GI50: 12.3 µM
  TGI: > 100 µM
SF-268 CNS
  GI50: 7.93 µM
  TGI: > 100 µM
SW-620 colon
  GI50: 4.36 µM
  TGI: > 100 µM
CAKI-1 renal
  GI50: > 100 µM
  TGI: > 100 µM
OVCAR-4 ovarian
  GI50: 3.41 µM
  TGI: 30.8 µM
SK-OV-3 ovarian
  GI50: 5.25 µM
  TGI: 54 µM
NCI-H460 lung
  GI50: 3.3 µM
  TGI: > 100 µM
SN12C renal
  GI50: 44.4 µM
  TGI: > 100 µM
SNB-19 CNS
  GI50: 65.1 µM
  TGI: > 100 µM
HL-60(TB) leukemia
  GI50: > 100 µM
  TGI: > 100 µM
SK-MEL-28 melanoma
  GI50: 4.25 µM
  TGI: 40.5 µM
HOP-62 NSCLC
  GI50: 2.41 µM
  TGI: 37.6 µM
UACC-257 melanoma
  GI50: 79.9 µM
  TGI: > 100 µM
SNB-75 CNS
  GI50: 3.62 µM
  TGI: 28.4 µM
LOX IMVI melanoma
  GI50: 10.1 µM
  TGI: > 100 µM
MCF7 breast
  GI50: 4.28 µM
  TGI: > 100 µM
HCT-116 colon
  GI50: 2.46 µM
  TGI: 13.6 µM
NCI-H23 lung
  GI50: 9.67 µM
  TGI: > 100 µM
UACC-62 melanoma
  GI50: 4.87 µM
  TGI: 51.9 µM
COLO 205 colon
  GI50: 6.12 µM
  TGI: > 100 µM
IGROV1 ovarian
  GI50: 59.3 µM
  TGI: > 100 µM
MDA-MB-231 breast
  GI50: 3.71 µM
  TGI: 46.5 µM
CCRF-CEM leukemia
  GI50: 5.93 µM
  TGI: > 100 µM
NCI/ADR-RES ovarian
  GI50: 19.7 µM
  TGI: > 100 µM
M14 melanoma
  GI50: 17.5 µM
  TGI: > 100 µM
BT-549 breast
  GI50: 41.5 µM
  TGI: > 100 µM
HT29 colon
  GI50: 3.57 µM
  TGI: 16 µM
A549 NSCLC
  GI50: 2.4 µM
  TGI: 35.1 µM
NCI-H226 lung
  GI50: > 100 µM
  TGI: > 100 µM
HOP-92 NSCLC
  GI50: 36.2 µM
  TGI: > 100 µM
KM12 colon
  GI50: 8.55 µM
  TGI: > 100 µM
HCC-2998 colon
  GI50: > 100 µM
  TGI: > 100 µM
UO-31 renal
  GI50: 50.7 µM
  TGI: > 100 µM
NCI-H522 lung
  GI50: 4.94 µM
  TGI: 53.5 µM
HCT-15 colon
  GI50: > 100 µM
  TGI: > 100 µM
SF-539 CNS
  GI50: 1.93 µM
  TGI: 4.97 µM
786-0 renal
  GI50: 7.12 µM
  TGI: > 100 µM
OVCAR-3 ovarian
  GI50: 3.89 µM
  TGI: 16 µM
U251 CNS
  GI50: 3.6 µM
  TGI: 19 µM
MDA-MB-435
  GI50: 5.29 µM
  TGI: > 100 µM
OVCAR-5 ovarian
  GI50: 4.03 µM
  TGI: > 100 µM
K-562 leukemia
  GI50: 3.13 µM
  TGI: > 100 µM
RPMI-8226 leukemia
  GI50: > 100 µM
  TGI: > 100 µM

Reference: PubChem BioAssay (NCI)
